ChEMBL document CHEMBL5050844 (2019)

Legend:
[1] = Induction of anti-CD3/CD28 antibodies-stimulated human T cell activation at 4 uM assessed fold increase in IL-2 secretion measured by ELISA assay; format: functional, T cell line
[2] = Induction of anti-CD3/CD28 antibodies-stimulated human T cell activation at 1 uM assessed fold increase in IL-2 secretion measured by ELISA assay; format: functional, T cell line
[3] = Induction of anti-CD3/CD28 antibodies-stimulated human T cell activation at 0.3 uM assessed fold increase in IL-2 secretion measured by ELISA assay; format: functional, T cell line
[4] = Induction of anti-CD3 antibodies-stimulated human T cell activation at 8 uM assessed fold increase in IL-2 secretion measured by ELISA assay; format: functional, T cell line; also: reference of the scale not given here
[5] = Induction of anti-CD3 antibodies-stimulated human T cell activation at 1 uM assessed fold increase in IL-2 secretion measured by ELISA assay; format: functional, T cell line; also: reference of the scale not given here
[6] = Induction of anti-CD3/CD28 antibodies-stimulated human T cell activation at 4 uM assessed fold increase in CD25 expression measured by ELISA assay; format: functional, T cell line
[7] = Induction of anti-CD3 antibodies-stimulated human T cell activation at 8 uM assessed fold increase in CD25 expression measured by ELISA assay; format: functional, T cell line; also: reference of the scale not given here
[8] = Induction of anti-CD3/CD28 antibodies-stimulated human CD4+ T cell activation at 10 uM assessed fold increase in CD69 expression measured by flow cytometry analysis; format: functional, T cell line
[9] = Induction of anti-CD3/CD28 antibodies-stimulated human CD4+ T cell activation at 1.11 uM assessed fold increase in CD69 expression measured by flow cytometry analysis; format: functional, T cell line
[10] = Induction of anti-CD3/CD28 antibodies-stimulated human CD4+ T cell activation at 1.11 uM assessed fold increase in cell proliferation measured by flow cytometry analysis; format: functional, T cell line
[11] = Induction of anti-CD3/CD28 antibodies-stimulated human CD8+ T cell activation at 10 uM assessed fold increase in CD69 expression measured by flow cytometry analysis; format: functional, T cell line
[12] = Induction of anti-CD3/CD28 antibodies-stimulated human CD8+ T cell activation at 1.11 uM assessed fold increase in CD69 expression measured by flow cytometry analysis; format: functional, T cell line
[13] = Induction of anti-CD3/CD28 antibodies-stimulated human CD8+ T cell activation at 10 uM assessed fold increase in cell proliferation measured by flow cytometry analysis; format: functional, T cell line
[14] = Induction of anti-CD3 antibodies-stimulated human CD4+ T cell activation at 10 uM assessed fold increase in CD69 expression measured by flow cytometry analysis; format: functional, T cell line; also: reference of the scale not given here
[15] = Induction of anti-CD3 antibodies-stimulated human CD4+ T cell activation at 1.11 uM assessed fold increase in CD69 expression measured by flow cytometry analysis; format: functional, T cell line; also: reference of the scale not given here
[16] = Induction of anti-CD3 antibodies-stimulated human CD8+ T cell activation at 10 uM assessed fold increase in cell proliferation measured by flow cytometry analysis; format: functional, T cell line; also: reference of the scale not given here
[17] = Induction of anti-CD3/CD28 antibodies-stimulated human T cell activation at 10 uM assessed fold increase in GM-CSF secretion measured by ELISA assay; format: functional, T cell line
[18] = Induction of anti-CD3/CD28 antibodies-stimulated human T cell activation at 1.11 uM assessed fold increase in GM-CSF secretion measured by ELISA assay; format: functional, T cell line
[19] = Induction of anti-CD3/CD28 antibodies-stimulated human T cell activation at 10 uM assessed fold increase in TNF-alpha secretion measured by ELISA assay; format: functional, T cell line
[20] = Induction of anti-CD3/CD28 antibodies-stimulated human T cell activation at 1.11 uM assessed fold increase in TNF-alpha secretion measured by ELISA assay; format: functional, T cell line
[21] = Induction of anti-CD3 antibodies-stimulated human T cell activation at 10 uM assessed fold increase in TNF-alpha secretion measured by ELISA assay; format: functional, T cell line; also: reference of the scale not given here
[22] = Induction of anti-CD3 antibodies-stimulated human T cell activation at 1.11 uM assessed fold increase in TNF-alpha secretion measured by ELISA assay; format: functional, T cell line; also: reference of the scale not given here
[23] = Induction of anti-CD3/CD28 antibodies-stimulated human T cell activation at 10 uM assessed fold increase in IFN-gamma secretion measured by ELISA assay; format: functional, T cell line
[24] = Induction of anti-CD3/CD28 antibodies-stimulated human T cell activation at 1.11 uM assessed fold increase in IFN-gamma secretion measured by ELISA assay; format: functional, T cell line
[25] = Induction of anti-CD3 antibodies-stimulated human T cell activation at 10 uM assessed fold increase in IFN-gamma secretion measured by ELISA assay; format: functional, T cell line; also: reference of the scale not given here
[26] = Induction of allogenic human T cell activation at 10 uM assessed fold increase in cell proliferation; format: functional, T cell line
[27] = Induction of allogenic human T cell activation at 3 uM assessed fold increase in cell proliferation; format: functional, T cell line
[28] = Induction of anti-CD3 antibodies-stimulated human exhausted T cell activation assessed fold increase in IFN-gamma secretion measured by ELISA assay; format: functional, T cell line; also: reference of the scale not given here
[29] = Induction of anti-CD3 antibodies-stimulated human exhausted T cell activation assessed fold increase in IL-2 secretion measured by ELISA assay; format: functional, T cell line; also: reference of the scale not given here
[30] = Induction of anti-CD3 antibodies-stimulated human exhausted CD4+ T cell activation assessed fold increase in CTLA4 expression measured by flow cytometry analysis; format: functional, T cell line; also: reference of the scale not given here
[31] = Induction of anti-CD3/CD28 antibodies-stimulated human anergic T cell activation at 10 uM assessed fold increase in IFN-gamma secretion measured by ELISA assay; format: functional, T cell line
[32] = Induction of anti-CD3/CD28 antibodies-stimulated human anergic T cell activation at 0.37 uM assessed fold increase in IFN-gamma secretion measured by ELISA assay; format: functional, T cell line
B cell = experiment: Induction of anti-IgM-stimulated human CD20+ B cell activation at 10 to 1000 uM assessed as increase in CD69 expression measured as mean fluorescence intensity AUC by flow cytometry analysis; format: functional, cell-based; details: dose 10-1000 µM
[33] = Induction of activation of human CD56+ CD3- NK cells co-cultured with human K562 cells in 1:1 ratio and assessed as increase in IFN-gamma secretion at 10 uM measured by ELISA assay; format: functional, Natural killer cell
[34] = Induction of activation of human CD56+ CD3- NK cells co-cultured with human K562 cells in 1:1 ratio and assessed as increase in IFN-gamma secretion at 2.5 uM measured by ELISA assay; format: functional, Natural killer cell
[35] = Induction of activation of human CD56+ CD3- NK cells co-cultured with human K562 cells in 1:1 ratio and assessed as increase in IFN-gamma secretion at 0.625 uM measured by ELISA assay; format: functional, Natural killer cell
[36] = Induction of activation of human CD56+ CD3- NK cells co-cultured with human K562 cells in 1:1 ratio and assessed as increase in TNF-alpha secretion at 2.5 uM measured by ELISA assay; format: functional, Natural killer cell
[37] = Induction of activation of human CD56+ CD3- NK cells co-cultured with human K562 cells in 1:1 ratio and assessed as increase in TNF-alpha secretion at 0.625 uM measured by ELISA assay; format: functional, Natural killer cell

SMILES	fold change (FC) [1]	fold change (FC) [2]	fold change (FC) [3]	fold change (FC) [4]	fold change (FC) [5]	fold change (FC) [6]	fold change (FC) [7]	fold change (FC) [8]	fold change (FC) [9]	fold change (FC) [10]	fold change (FC) [11]	fold change (FC) [12]	fold change (FC) [13]	fold change (FC) [14]	fold change (FC) [15]	fold change (FC) [16]	fold change (FC) [17]	fold change (FC) [18]	fold change (FC) [19]	fold change (FC) [20]	other results
Cc1cc(C(=O)Nc2cccc([C@@H](C)Cc3nncn3C)c2)nc(C2CC2)n1	2.51	1.01	1.01	0.101	0.051	1.01	>=1.001	1.401	1.401	>4	1.201	1.201	>4	>1.601	1.401	>4	2.01	1.51	2.01	<=1.5	fold change (FC) [21]: <=1.5; fold change (FC) [22]: <=1.5; fold change (FC) [23]: >4; fold change (FC) [24]: 3.01; fold change (FC) [25]: <=2; fold change (FC) [26]: <=2; fold change (FC) [27]: <=2; fold change (FC) [28]: <=1.4; fold change (FC) [29]: <=2.5; fold change (FC) [30]: <=1.4; fold change (FC) [31]: <=2.5; fold change (FC) [32]: <=2.5; AUC (B cell): 1.01; fold change (FC) [33]: 2.01; fold change (FC) [34]: 1.01; fold change (FC) [35]: 1.01; fold change (FC) [36]: <=1; fold change (FC) [37]: <=1
C[C@H](Cc1nncn1C)c1cccc(N2Cc3c(cccc3C(F)(F)F)C2=O)c1.Cl	5	2.51	1.01	>=0.201	0.051	>=1.76	>=1.001	1.201	<=1.2	<=2	1.201	<=1.2	2.01	<=1.2	<=1.2	<=2	1.51	<=1.5	1.51	<=1.5	fold change (FC) [21]: <=1.5; fold change (FC) [22]: <=1.5; fold change (FC) [23]: >4; fold change (FC) [24]: 3.01; fold change (FC) [25]: <=2; fold change (FC) [26]: <=2; fold change (FC) [27]: <=2; fold change (FC) [28]: <=1.4; fold change (FC) [29]: <=2.5; fold change (FC) [30]: 1.41; fold change (FC) [31]: <=2.5; fold change (FC) [32]: <=2.5; AUC (B cell): 1.01; fold change (FC) [33]: 2.01; fold change (FC) [34]: 1.01; fold change (FC) [35]: 1.01; fold change (FC) [36]: 1.01; fold change (FC) [37]: 1.01
Cn1cnnc1[C@@H]1C[C@@H]1c1cccc(N2Cc3c(cccc3C(F)(F)F)C2=O)c1	2.51	1.01	<=1	<=0.05	<=0.05	>=1.76	>=1.001	1.201	<=1.2	<=2	1.201	<=1.2	2.01	1.201	<=1.2	3.01	2.01	1.51	2.01	<=1.5	fold change (FC) [21]: <=1.5; fold change (FC) [22]: <=1.5; fold change (FC) [23]: 2.01; fold change (FC) [24]: <=2; fold change (FC) [25]: 2.01; fold change (FC) [26]: <=2; fold change (FC) [27]: <=2; fold change (FC) [28]: 1.41; fold change (FC) [29]: 2.51; fold change (FC) [30]: <=1.4; fold change (FC) [31]: <=2.5; fold change (FC) [32]: <=2.5; AUC (B cell): 0.5; fold change (FC) [33]: 2.01; fold change (FC) [34]: 1.01; fold change (FC) [35]: 2.01; fold change (FC) [36]: 1.01; fold change (FC) [37]: 1.01
Cc1cc(C(=O)Nc2cccc(C3(Cc4nncn4C)COC3)c2)nc(C2CC2)n1	>=7.5	>=7.5	5	>=0.201	>=0.201	1.51	>=1.001	1.401	1.401	>4	1.201	1.201	>4	>1.601	1.401	>4	>4	2.01	2.01	2.01	fold change (FC) [21]: 1.51; fold change (FC) [22]: 1.51; fold change (FC) [23]: >4; fold change (FC) [24]: 2.01; fold change (FC) [25]: >4; fold change (FC) [26]: >3; fold change (FC) [27]: <=2; fold change (FC) [28]: 1.41; fold change (FC) [29]: >3.01; fold change (FC) [30]: <=1.4; fold change (FC) [31]: >4.01; fold change (FC) [32]: 2.51; AUC (B cell): > 1.51; fold change (FC) [33]: >=5; fold change (FC) [34]: 2.01; fold change (FC) [35]: 2.01; fold change (FC) [36]: 2.01; fold change (FC) [37]: 1.01
